The test system of test [1] is Human melanoma cancer cells (SK-MEL-28). The test can be described thus: Cell growth inhibition assay (CellTiter-Glo), SK-MEL-28. It counts as cell-based.
The target of test [2] is T1, BRAFV600E full-length (amino acids 2-766) (Homo sapiens, UniProt P15056, V600E).
T1 construct: His6-tagged BRAFV600E full-length (amino acids 2-766); His6; made in house; host or cells: baculovirus expression system (insect cells)
The test can be described thus: B-Raf Accelerated MEK ATPase assay (BRAMA). The class given is biochemical. In outline:
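Coupled-enzyme readout: ADP generated by MEK-mediated ATP hydrolysis, uncoupled from ERK phosphorylation, is linked to NADH oxidation through pyruvate kinase and lactate dehydrogenase.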

The test system of test [3] is Human colon tumor cells (Colo205). The test can be described thus: Cell growth inhibition assay (CellTiter-Glo), Colo205. The class given is cell-based. Put shortly: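 Luminescent ATP read-out (CellTiter-Glo) served as a proxy for cell number; percent growth inhibition was calculated against DMSO vehicle wells. Cells were treated for 3 days at 37 °C with serially diluted compound, 0.2% DMSO final.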
In general terms: ATP-based viability assays read luminescence as a measure of living cells.

Where [4] appears, read: SK-MEL-28, 72 h, Table 3a, 3 days incubation, read-out: Activity in SK-MEL-28 Tumor Cells.
[5] abbreviates: SK-MEL-28, Table 3b, later runs, average for the one or more runs, categorized, read-out: IC50 for SK-MEL-28.
Setting [6] is: B-Raf Activity, Table 1a, highest pIC50 for the one or more runs, categorized.
[7] abbreviates: B-Raf pIC50, Table 1b, later runs, average pIC50 for the one or more runs, categorized.
The mark [8] stands for this setting: COLO 205, 72 h, Table 2a, 3 days incubation, read-out: Activity in Colo205 Tumor Cells.
[9] abbreviates: COLO 205, Table 2b, later runs, average for the one or more runs, categorized, read-out: IC50 for Colo205.
[10] abbreviates: Table 1b, later runs, average pIC50 for the one or more runs, categorized, read-out: B-Raf pIC50 (converted).

Each structure is given as a SMILES string. Structures can show the parent of a compound that is named as a salt. Where two headings read alike, the source gives them in different places.

We go through 19 compounds from patent US7994185B2, “Benzene sulfonamide thiazole and oxazole compounds” (Glaxo Smith Kline LLC, priority 2008, dated 2011).

T1 sequence (P15056 2-766 V600E): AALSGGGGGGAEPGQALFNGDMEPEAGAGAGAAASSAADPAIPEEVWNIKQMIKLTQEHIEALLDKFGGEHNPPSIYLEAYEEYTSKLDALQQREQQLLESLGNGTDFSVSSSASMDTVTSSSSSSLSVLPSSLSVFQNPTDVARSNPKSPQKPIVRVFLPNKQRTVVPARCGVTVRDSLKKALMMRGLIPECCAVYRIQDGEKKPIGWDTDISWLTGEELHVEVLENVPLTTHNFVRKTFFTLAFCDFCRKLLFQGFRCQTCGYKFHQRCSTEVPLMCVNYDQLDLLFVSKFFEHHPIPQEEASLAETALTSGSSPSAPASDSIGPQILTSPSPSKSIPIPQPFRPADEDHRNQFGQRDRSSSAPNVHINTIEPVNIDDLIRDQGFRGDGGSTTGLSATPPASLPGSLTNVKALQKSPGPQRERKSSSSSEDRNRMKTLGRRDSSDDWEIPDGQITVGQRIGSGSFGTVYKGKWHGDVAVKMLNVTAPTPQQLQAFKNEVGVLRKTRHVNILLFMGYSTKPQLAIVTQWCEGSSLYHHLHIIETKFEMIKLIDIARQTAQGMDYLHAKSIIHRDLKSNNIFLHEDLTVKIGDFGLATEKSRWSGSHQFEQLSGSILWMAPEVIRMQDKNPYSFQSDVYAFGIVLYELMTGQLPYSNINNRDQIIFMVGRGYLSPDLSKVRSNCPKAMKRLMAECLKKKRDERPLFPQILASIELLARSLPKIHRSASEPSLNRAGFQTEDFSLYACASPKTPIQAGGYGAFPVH

On to `CC(C)c1nc(-c2ccc(F)c(NS(=O)(=O)c3c(F)cccc3F)c2)c(-c2ccnc(NCCCN3CCCC3=O)n2)s1` [Example 95, 2,6-Difluoro-N-{2-fluoro-5-[2-(1-methylethyl)-5-(2-{[3-(2-oxo-1-pyrrolidinyl)propyl]amino}-4-pyrimidinyl)-1,3-thiazol-4-yl]phenyl}benzenesulfonamide], for which the IC50 in test [1] (setting [4]) was 100 to 1000 nM; in test [1] (setting [5]), 100 to 1000 nM; in test [2] (setting [6]) it was less than 100 nM; in test [2] (setting [7]), 31.6 to 1000 nM; in test [3] (setting [8]), 100 to 1000 nM; in test [3] (setting [9]), 100 to 1000 nM.
Take `CC(C)c1nc(-c2ccc(F)c(NS(=O)(=O)c3cc(F)ccc3F)c2)c(-c2ccnc(NC3CCS(=O)(=O)CC3)n2)s1` [Example 205]: the IC50 in test [1] (setting [4]) is 100 to 1000 nM; in test [1] (setting [5]), 100 to 1000 nM; in test [2] (setting [6]), less than 100 nM; in test [2] (setting [10]) it was 3.16 to 31.6 nM; in test [3] (setting [8]) it was 100 to 1000 nM; in test [3] (setting [9]), 100 to 1000 nM.
Consider `CC(C)(C)c1nc(-c2cccc(NS(=O)(=O)c3ccoc3)c2F)c(-c2ccncn2)s1` [Example 256, N-{3-[2-(1,1-dimethylethyl)-5-(4-pyrimidinyl)-1,3-thiazol-4-yl]-2-fluorophenyl}-3-furansulfonamide], for which the IC50 in test [1] (setting [5]) was less than 100 nM; in test [2] (setting [7]), not above 3.16 nM; in test [3] (setting [9]) it was less than 100 nM.
Consider `CCOC(=O)CCc1nccc(-c2sc(C(C)(C)C)nc2-c2cccc(NS(=O)(=O)c3c(F)cccc3F)c2F)n1` [Example 226, ethyl 3-{4-[4-(3-{[(2,6-difluorophenyl)sulfonyl]amino}-2-fluorophenyl)-2-(1,1-dimethylethyl)-1,3-thiazol-5-yl]-2-pyrimidinyl}propanoate], for which the results for the IC50 in test [1] (setting [5]), in test [2] (setting [7]) and in test [3] (setting [9]) were less than 100 nM, not above 3.16 nM and less than 100 nM, respectively.
With `CC(C)c1nc(-c2ccc(F)c(NS(=O)(=O)c3cc(F)ccc3F)c2)c(-c2ccnc(NC3CC(C)(C)NC(C)(C)C3)n2)s1` [Example 74, 2,5-Difluoro-N-[2-fluoro-5-(2-(1-methylethyl)-5-{2-[(2,2,6,6-tetramethyl-4-piperidinyl)amino]-4-pyrimidinyl}-1,3-thiazol-4-yl)phenyl]benzenesulfonamide], the IC50 is 100 to 1000 nM in test [1] (setting [4]); 100 to 1000 nM in test [1] (setting [5]); less than 100 nM in test [2] (setting [6]); not above 3.16 nM in test [2] (setting [7]); less than 100 nM in test [3] (setting [8]); less than 100 nM in test [3] (setting [9]).
Take `O=S(=O)(Nc1cccc(-c2nc(N3CCOCC3)sc2-c2ccnc(NCCO)n2)c1F)c1cc(F)ccc1F` [Example 208]: the IC50 was less than 100 nM in test [1] (setting [4]); less than 100 nM in test [1] (setting [5]); less than 100 nM in test [2] (setting [6]); not above 3.16 nM in test [2] (setting [7]); less than 100 nM in test [3] (setting [8]); less than 100 nM in test [3] (setting [9]).
`CC(C)(C)c1nc(-c2c(F)ccc(NS(=O)(=O)c3cccc(F)c3)c2F)c(-c2ccncn2)s1` [Example 221, N-{3-[2-(1,1-dimethylethyl)-5-(4-pyrimidinyl)-1,3-thiazol-4-yl]-2,4-difluorophenyl}-3-fluorobenzenesulfonamide]: the IC50 was less than 100 nM in test [1] (setting [5]), not above 3.16 nM in test [2] (setting [7]) and less than 100 nM in test [3] (setting [9]).
On to `CC(C)c1nc(-c2ccc(F)c(NS(=O)(=O)c3cc(F)ccc3F)c2)c(-c2ccnc(NCCS(C)(=O)=O)n2)s1` [Example 201], for which the IC50 in test [1] (setting [4]) was less than 100 nM; in test [1] (setting [5]), less than 100 nM; in test [2] (setting [6]), less than 100 nM; in test [2] (setting [7]) it was not above 3.16 nM; in test [3] (setting [8]), less than 100 nM; in test [3] (setting [9]), less than 100 nM.
In the case of `CC(C)Nc1nccc(-c2sc(N3CCOCC3)nc2-c2cccc(NS(=O)(=O)c3cc(F)ccc3F)c2F)n1` [Example 83, 2,5-Difluoro-N-{2-fluoro-3-[5-{2-[(1-methylethyl)amino]-4-pyrimidinyl}-2-(4-morpholinyl)-1,3-thiazol-4-yl]phenyl}benzenesulfonamide], the IC50 in test [1] (setting [4]) is less than 100 nM; in test [1] (setting [5]), less than 100 nM; in test [2] (setting [6]), less than 100 nM; in test [2] (setting [7]), not above 3.16 nM; in test [3] (setting [8]) it was less than 100 nM; in test [3] (setting [9]), less than 100 nM.
As to `CC(C)Nc1nccc(-c2sc(C(C)C)nc2-c2cccc(NS(=O)(=O)c3cccc(F)c3)c2)n1` [Example 158], the IC50 in test [1] (setting [4]) is more than 1000 nM; in test [1] (setting [5]) it was 1000 to 10000 nM; in test [2] (setting [6]) it was less than 100 nM; in test [2] (setting [7]), 31.6 to 1000 nM; in test [3] (setting [8]), more than 1000 nM; in test [3] (setting [9]), 1000 to 10000 nM.
`O=S(=O)(Nc1cccc(-c2nc(N3CCOCC3)sc2-c2ccncn2)c1Cl)c1c(F)cccc1F` [Example 27, N-{2-Chloro-3-[2-(4-morpholinyl)-5-(4-pyrimidinyl)-1,3-thiazol-4-yl]phenyl}-2,6-difluorobenzenesulfonamide]: the IC50 in test [1] (setting [4]) is 100 to 1000 nM; in test [1] (setting [5]) it was 100 to 1000 nM; in test [2] (setting [6]) it was less than 100 nM; in test [2] (setting [10]), 3.16 to 31.6 nM; in test [3] (setting [8]), 100 to 1000 nM; in test [3] (setting [9]) it was 100 to 1000 nM.
`CC(C)c1nc(-c2ccc(F)c(NS(=O)(=O)c3c(F)cccc3F)c2)c(-c2ccnc(NCCC(F)(F)F)n2)s1` [Example 180]: the IC50 in test [1] (setting [4]) was 100 to 1000 nM; in test [1] (setting [5]), 100 to 1000 nM; in test [2] (setting [6]), less than 100 nM; in test [2] (setting [10]), 3.16 to 31.6 nM; in test [3] (setting [8]), 100 to 1000 nM; in test [3] (setting [9]) it was 100 to 1000 nM.
As for `CC(C)(C)c1nc(-c2cccc(NS(=O)(=O)c3c(F)cccc3F)c2F)c(-c2ccnc(NC3CCS(=O)(=O)CC3)n2)s1` [Example 13, N-[3-(2-(1,1-Dimethylethyl)-5-{2-[(1,1-dioxidotetrahydro-2H-thiopyran-4-yl)amino]-4-pyrimidinyl}-1,3-thiazol-4-yl)-2-fluorophenyl]-2,6-difluorobenzenesulfonamide], the IC50 is less than 100 nM in test [1] (setting [4]); less than 100 nM in test [1] (setting [5]); less than 100 nM in test [2] (setting [6]); not above 3.16 nM in test [2] (setting [7]); less than 100 nM in test [3] (setting [8]); less than 100 nM in test [3] (setting [9]).
Turning to `Nc1nccc(-c2sc(N3CCS(=O)(=O)CC3)nc2-c2cccc(NS(=O)(=O)c3c(F)cccc3F)c2F)n1` [Example 102, N-{3-[5-(2-Amino-4-pyrimidinyl)-2-(1,1-dioxido-4-thiomorpholinyl)-1,3-thiazol-4-yl]-2-fluorophenyl}-2,6-difluorobenzenesulfonamide], the IC50 in test [1] (setting [4]) was 100 to 1000 nM; in test [1] (setting [5]), 100 to 1000 nM; in test [2] (setting [6]), less than 100 nM; in test [2] (setting [10]) it was 3.16 to 31.6 nM; in test [3] (setting [8]), 100 to 1000 nM; in test [3] (setting [9]), 100 to 1000 nM.
Turning to `CS(=O)(=O)N1CCC(Nc2nccc(-c3sc(N4CCOCC4)nc3-c3cccc(NS(=O)(=O)c4cc(F)ccc4F)c3F)n2)CC1` [Example 82, 2,5-Difluoro-N-{2-fluoro-3-[5-(2-{[1-(methylsulfonyl)-4-piperidinyl]amino}-4-pyrimidinyl)-2-(4-morpholinyl)-1,3-thiazol-4-yl]phenyl}benzenesulfonamide], the IC50 in test [1] (setting [4]), in test [2] and in test [3] (setting [8]) was less than 100 nM each time.
With `CC(C)(C)c1nc(-c2cccc(NS(=O)(=O)c3cc(F)ccc3F)c2F)c(-c2ccnc(NCC(F)F)n2)s1` [Example 177], the IC50 in test [1] (setting [4]) was less than 100 nM; in test [1] (setting [5]), 1000 to 10000 nM; in test [2] (setting [6]), less than 100 nM; in test [2] (setting [7]), not above 3.16 nM; in test [3] (setting [8]) it was less than 100 nM; in test [3] (setting [9]) it was 1000 to 10000 nM.
Regarding `CC(C)CNc1nccc(-c2oc(N3CCCC3)nc2-c2cccc(NS(=O)(=O)c3c(F)cccc3F)c2)n1` [Example 111, 2,6-Difluoro-N-{3-[5-{2-[(2-methylpropyl)amino]-4-pyrimidinyl}-2-(1-pyrrolidinyl)-1,3-oxazol-4-yl]phenyl}benzenesulfonamide], the IC50 is 1000 to 10000 nM in test [1] (setting [5]), less than 100 nM in test [2] (setting [6]), 31.6 to 1000 nM in test [2] (setting [7]) and 1000 to 10000 nM in test [3] (setting [9]).
As to `CC(C)(C)c1nc(-c2c(F)ccc(NS(=O)(=O)c3c(F)cccc3F)c2F)c(-c2ccnc(N)n2)s1` [Example 107, N-{3-[5-(2-amino-4-pyrimidinyl)-2-(1,1-dimethylethyl)-1,3-thiazol-4-yl]-2,4-difluorophenyl}-2,6-difluorobenzenesulfonamide], the IC50 is less than 100 nM in test [1] (setting [4]); less than 100 nM in test [1] (setting [5]); less than 100 nM in test [2] (setting [6]); not above 3.16 nM in test [2] (setting [7]); less than 100 nM in test [3] (setting [8]); less than 100 nM in test [3] (setting [9]).
In the case of `Cn1ccc(S(=O)(=O)Nc2cccc(-c3nc(C(C)(C)C)sc3-c3ccnc(N)n3)c2F)c1` [Example 284, N-{3-[5-(2-amino-4-pyrimidinyl)-2-(1,1-dimethylethyl)-1,3-thiazol-4-yl]-2-fluorophenyl}-1-methyl-1H-pyrrole-3-sulfonamide hydrochloride], the IC50 was 100 to 1000 nM in test [1] (setting [5]), 31.6 to 1000 nM in test [2] (setting [7]) and 100 to 1000 nM in test [3] (setting [9]).
